Laboratory results as given in patent US20050075398A1, “Neuroprotectin D1 protects against cellular apoptosis, stroke damage, alzheimer's disease and retinal diseases” (priority 2003, published 2005).

Columns and labels:
Bax gene expression = assay: HGU133 GeneChip DNA array in HN cells: Bax; format: cell-based, human; conditions: Aβ42 25 μM, DHA 50 nM or NPD1 50 nM, 18 h, nsc = no significant change
Description: Total RNA quality and abundance were profiled using RNA Nano LabChips (Caliper Technologies, Mountainview, Calif.; Agilent Technologies, Palo Alto, Calif.).
Biotinylated antisense cRNAs were synthesized from cDNA using the Superscript Choice System (Invitrogen) and Enzo Biorray High Yield RNA Transcript Labeling kits according to the manufacturer's protocols (Affymetrix) and as described in Colangelo, V., Schurr, J., Ball, M. J., Pelaez, R. P., Bazan, N. G., Lukiw, W. J. (2002) J. Neurosci. […] Probes were hybridized against HU133Av2 GeneChip DNA arrays that interrogate approximately 33,000 full-length mouse genes and expressed sequence tag (EST) clusters.
DNA arrays were scanned at 570 nm, and significant features were extracted using Data Mining Tool 3.0 (Affymetrix). Data analyses and graphic presentations were performed using Microarray Suite 5.0 (Affymetrix), GeneSpring 6.0 (Silicon Genetics, Redwood City, Calif.) and Adobe Photoshop 6.0 (Adobe Systems, San Jose, Calif.). Volcano plots were plotted representing total gene expression patterns as a function of fold-change as compared to expression patterns of age-matched controls as plotted against p, as calculated by an analysis of variance (ANOVA). […] Statistical significance was analyzed using a two-way factorial analysis of variance (p, ANOVA; Statistical Analysis System; SAS Institute, Cary, N.C. ).

ARPE-19 cells = assay: ELISA detection of mono- and oligonucleosomes; format: cell-based, human; conditions: 50 nM
Description: Assessment of apoptosis by mono- and oligonucleosome analysis: Cells were homogenized in a lysis buffer and 20-μl aliquots were applied on streptavidin-coated 96-well plates. Cells were incubated for 2 h with 80 μl incubation buffer containing the monoclonal antibodies directed against DNA and histones for detection of mono- and oligonucleosomes (Roche Diagnostics Corporation Cat. # 1774425). After the unreacted antibodies were washed away, the immune complexes of DNA-histone-antibodies remain bound to the streptavidin-coated plates, where detection was attained by horseradish-peroxidase reaction.
DNA fragmentation was also detected by ELISA detection of mono- and oligonucleosomes in ARPE cells (Roche Diagnostics Corporation Cat. # 1774425). Cells were homogenized in a lysis buffer, and 20-μl aliquots were applied on streptavidin-coated 96-well plates. Cells were incubated for 2 h with 80 μl incubation buffer containing the monoclonal antibodies directed against DNA and histones for detection of mono- and oligonucleosomes. After the unreacted antibodies were washed away, the immune complexes of DNA-histone-antibodies remained bound to the streptavidin-coated plates, where detection is obtained through horseradish-peroxidase reaction. Quantitative analysis was performed in a Spectramax-250 (Molecular Devices) spectrophotometer.

[1] = test system: polymorphonuclear leukocyte infiltration (myeloperoxidase activity); assay: Myeloperoxidase (MPO) activity assay in hippocampus and neocortex after MCA-O and reperfusion; format: in vivo, mouse; conditions: 0.4 μg over 48 h cerebroventricular perfusion; 1 h MCA-O, 48 h reperfusion
Description: Middle Cerebral Artery Occlusion (MCA-O) and reperfusion. Experimental protocols were reviewed and approved by the Institutional Animal Care and Use Committee of Louisiana State University Health Sciences Center, New Orleans. Mice (20-25 g body wt) were induced with 2% isoflurane in a mixture of 70% nitrous oxide and 30% oxygen. Anesthesia was maintained with 1% isoflurane. Temperature was maintained at 36.5-37.5° C. using a Harvard homeothermic blanket. P 10 polyethylene catheters were placed in the femoral artery and vein, and the blood pressure was monitored. Arterial blood was analyzed for PO2, PCO2, and pH after 1 h of ischemia and 30 min after the onset of reperfusion. The common carotid and external carotid arteries were temporarily ligated with a retracting suture, and the external carotid artery was dissected just proximal to its bifurcation. The occluding filament was introduced from the external carotid artery and advanced to the internal carotid artery. The AVM micro clip was removed. The filament was advanced so that the blunted tip lay in the anterior cerebral artery and the side of the filament occluded the origin of the middle cerebral artery (MCA). The stump of the external carotid artery was ligated, and tension on the retracting suture to the common carotid artery was gently released, restoring blood flow to the carotid system.
Occlusion of the middle cerebral artery (MCA-O) was maintained for 1 h; reperfusion was then established by delicate retrieval of the occluding suture from the arterial lumen, restoring blood flow to the region of the MCA. The mice were then killed, and the hippocampus and brain cortex rapidly dissected and frozen. Samples were kept at −80° C. until analysis. In some experiments, aspirin (7.5 mg/kg) was administered by gavage 15 min before MCA-O.
Polymorphonuclear leukocyte infiltration measurement by the myeloperoxidase (MPO) assay. Inhibition of leukocyte infiltration by 10,17S-docosatriene (NPD1) or docosahexaenoic acid (DHA) was measured in mouse hippocampus and neocortex after 1 h of middle cerebral artery occlusion (MCA-O) and 48 h of reperfusion. Lipids were delivered for each experiment by perfusion (250 nl/h) through Alzet minipumps implanted into the third ventricle. Hippocampus and neocortex from the ipsilateral (MCA-O-reperfusion) and contralateral sides were rapidly dissected. Brain samples were assayed for myeloperoxidase activity as described in Huang, J., Choudhri, T. F., Winfree, C. J., McTaggart, R. A., Kiss, S., Mocco, J., Kim, L. J., Protopsaltis, T. S., Zhang, Y., Pinsky, D. J., and Connolly Jr., E. S. (2000) Stroke 31, 3047-3053. Briefly, brain tissues were homogenized in 10 mM phosphate buffer (pH 7.4), then frozen and thawed with liquid N2 followed by sonication. Samples were precipitated at 10,000×g for 10 min, then aliquots of supernatants were added to 10 mM phosphate buffer (pH 6.0) and a substrate solution containing o-dianisidine (Sigma; St. Louis, Mo.) and 0.025% hydrogen peroxide, and finally incubated at 37° C. for 45 min. Spectrophotometric detection was obtained at 460 nm.

Bad = assay: Western blot of Bad in ARPE-19 cells under TNFα/H2O2; format: cell-based, human; conditions: 50 nM; similar conditions (800 μM H2O2 with TNFα)
Description: Analysis of pro- and anti-apoptotic proteins in ARPE-19 cells: Bcl-2 family proteins were analyzed by Western-blot analysis. In brief, 20-μg equivalents of each cell extract were subjected to electrophoresis on a 8-16% gel (Promega, Madison, Wis.) at 125 volts for 2 h. The proteins were transferred to nitrocellulose membrane at 30 volts for 1 h at 4° C. The membranes were subjected to treatment with primary antibodies of Bcl-2, Bcl-xL, Bax, and Bad for 1 h at room temperature, and probed 30 min with secondary antibody, goat anti-rabbit Ig:HRPO and HRP-conjugated anti-biotin antibody. (BD Sciences—Pharminogen, San Diego, Calif.) Then proteins were evaluated using an ECL kit. (Amersham Biosciences Corp., Piscataway, N.J.)
Using the same TNFα/H2O2 concentrations, Bcl-2 proteins were assayed. Cells were grown for 72 h after plating, placed in serum-free medium for 1 h, then incubated with TNFα/H2O2 for 6 h. Protein expression and Western-blot analysis were performed as described in Example 13. Data in FIGS. 14A, 14B, 14C and 14D represent four independent experiments with triplicate samples in each case. Anti-apoptotic protein Bcl-xL was enhanced in ARPE-19 cells by TNFα/H2O2 (800 μM) (FIG. 14B, first bar), whereas Bcl-2 was not changed (FIG. 14A, first bar).

## CC/C=C\C[C@H](O)\C=C/C=C/C=C/[C@H](O)C/C=C\C/C=C\CCC(=O)O [NPD1, 10,17S-docosatriene]
Bax gene expression
  Bax gene expression, fold change over untreated controls: nsc
ARPE-19 cells
  effect on TNFα/H2O2-induced accumulation of mono- and oligonucleosomes: inhibited
[1]
  inhibition of ipsilateral myeloperoxidase activity, cortex: 99%
  inhibition of ipsilateral myeloperoxidase activity, hippocampus: 80%
Bad
  decrease of oxidative stress-increased Bad: 52%
